Tests used:
Type in all cases: in vivo
[1] = tested on: ivy-leaved morning glory (Ipomoea hederacea); assay: Test G Post-Emergence Protocol; details: Ipomoea, post-emergence, 312 h; for pest or weed control at 15.625 g/ha: 15.625 g ai/ha, evaluated after 13 days (100=total damage to plant; 0=no damage to plant), read-out: Morningglory, Ivy-leaved damage rating; for pest or weed control at 62.5 g/ha: 62.5 g ai/ha, read-out: Morningglory, Ivy-leaved damage rating (100=total damage to plant; 0=no damage to plant); for pest or weed control at 62.5 g/ha / pest or weed control at 250 g/ha: evaluated after 13 days; for pest or weed control at 250 g/ha: 250 g ai/ha, read-out: damage to plant, Morningglory, Ivy-leaved (100=total damage to plant; 0=no damage to plant)
Summary of the method: (§1)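 Pot-grown seedlings, 8 days old, raised in a glasshouse at 24/16 °C day/night with 14 h light and 65% humidity, were sprayed post-emergence with test compound in acetone/water (50:50) plus 0.5% Tween 20 at 15.625, 62.5 or 250 g/ha. Damage was scored visually 13 days later on a 0–100 scale (100 = total damage).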

[2] = tested on: barnyardgrass (Echinochloa crus-galli); assay: Test G Post-Emergence Protocol; details: Echinochloa crus-galli, post-emergence, 312 h; for pest or weed control at 15.625 g/ha: 15.625 g ai/ha, evaluated after 13 days (100=total damage to plant; 0=no damage to plant), read-out: Barnyardgrass damage rating; for pest or weed control at 62.5 g/ha: 62.5 g ai/ha, read-out: Barnyardgrass damage rating (100=total damage to plant; 0=no damage to plant); for pest or weed control at 62.5 g/ha / pest or weed control at 250 g/ha: evaluated after 13 days; for pest or weed control at 250 g/ha: 250 g ai/ha, read-out: damage to plant, Barnyardgrass (100=total damage to plant; 0=no damage to plant)
Summary of the method: as §1

[3] = tested on: giant foxtail (Setaria faberi); assay: Test G Post-Emergence Protocol; details: Setaria faberi, post-emergence, 312 h; for pest or weed control at 15.625 g/ha: 15.625 g ai/ha, evaluated after 13 days (100=total damage to plant; 0=no damage to plant), read-out: Foxtail, Giant damage rating; for pest or weed control at 62.5 g/ha: 62.5 g ai/ha, read-out: Foxtail, Giant damage rating (100=total damage to plant; 0=no damage to plant); for pest or weed control at 62.5 g/ha / pest or weed control at 250 g/ha: evaluated after 13 days; for pest or weed control at 250 g/ha: 250 g ai/ha, read-out: damage to plant, Foxtail, Giant (100=total damage to plant; 0=no damage to plant)
Summary of the method: as §1

[4] = tested on: redroot pigweed (Amaranthus retroflexus); assay: Test G Post-Emergence Protocol; details: Amaranthus retroflexus, post-emergence, 312 h; for pest or weed control at 15.625 g/ha: 15.625 g ai/ha, evaluated after 13 days (100=total damage to plant; 0=no damage to plant), read-out: Pigweed, Redroot damage rating; for pest or weed control at 62.5 g/ha: 62.5 g ai/ha, read-out: Pigweed, Redroot damage rating (100=total damage to plant; 0=no damage to plant); for pest or weed control at 62.5 g/ha / pest or weed control at 250 g/ha: evaluated after 13 days; for pest or weed control at 250 g/ha: 250 g ai/ha, read-out: damage to plant, Pigweed, Redroot (100=total damage to plant; 0=no damage to plant)
Summary of the method: as §1

corn (Zea mays) [5] = assay: Test G Post-Emergence Protocol; details: Zea mays, post-emergence, 312 h; for plant injury at 15.625 g/ha: 15.625 g ai/ha, evaluated after 13 days (100=total damage to plant; 0=no damage to plant), read-out: Corn damage rating; for plant injury at 62.5 g/ha: 62.5 g ai/ha, read-out: Corn damage rating (100=total damage to plant; 0=no damage to plant); for plant injury at 62.5 g/ha / plant injury at 250 g/ha: evaluated after 13 days; for plant injury at 250 g/ha: 250 g ai/ha, read-out: damage to plant, Corn (100=total damage to plant; 0=no damage to plant)
Summary of the method: as §1

[6] = tested on: velvetleaf (Abutilon theophrasti); assay: Test G Post-Emergence Protocol; details: Abutilon theophrasti, post-emergence, 312 h; for pest or weed control at 15.625 g/ha: 15.625 g ai/ha, evaluated after 13 days (100=total damage to plant; 0=no damage to plant), read-out: Velvetleaf damage rating; for pest or weed control at 62.5 g/ha: 62.5 g ai/ha, read-out: Velvetleaf damage rating (100=total damage to plant; 0=no damage to plant); for pest or weed control at 62.5 g/ha / pest or weed control at 250 g/ha: evaluated after 13 days; for pest or weed control at 250 g/ha: 250 g ai/ha, read-out: damage to plant, Velvetleaf (100=total damage to plant; 0=no damage to plant)
Summary of the method: as §1

[7] = tested on: ivy-leaved morning glory (Ipomoea hederacea); assay: Test G Pre-Emergence Protocol; details: Ipomoea, pre-emergence, 312 h, evaluated after 13 days; for pest or weed control at 15.625 g/ha: 15.625 g ai/ha, read-out: Morning-glory, Ivy-leaved damage rating (100=total damage to plant; 0=no damage to plant); for pest or weed control at 62.5 g/ha: 62.5 g ai/ha, 100=total damage to plant, 0=no damage to plant, read-out: plant damage rating, Morningglory, Ivy-leaved; for pest or weed control at 250 g/ha: 250 g ai/ha, read-out: Morningglory, Ivy-leaved damage rating (100=total damage to plant; 0=no damage to plant)
Summary of the method: (§2)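 Pots of seeds in standard soil were grown for one day in a glasshouse (24/16 °C day/night, 14 h light, 65% humidity), then sprayed with compound in acetone/water 50:50 with 0.5% Tween 20 at 15.625, 62.5 or 250 g/ha. Damage was scored after 13 days on a 0 (none) to 100 (total) scale.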

[8] = tested on: barnyardgrass (Echinochloa crus-galli); assay: Test G Pre-Emergence Protocol; details: Echinochloa crus-galli, pre-emergence, 312 h, evaluated after 13 days; for pest or weed control at 15.625 g/ha: 15.625 g ai/ha, read-out: Barnyard grass damage rating (100=total damage to plant; 0=no damage to plant); for pest or weed control at 62.5 g/ha: 62.5 g ai/ha, 100=total damage to plant, 0=no damage to plant, read-out: plant damage rating, Barnyardgrass; for pest or weed control at 250 g/ha: 250 g ai/ha, read-out: Barnyardgrass damage rating (100=total damage to plant; 0=no damage to plant)
Summary of the method: as §2

[9] = tested on: giant foxtail (Setaria faberi); assay: Test G Pre-Emergence Protocol; details: Setaria faberi, pre-emergence, 312 h, evaluated after 13 days; for pest or weed control at 15.625 g/ha: 15.625 g ai/ha; for pest or weed control at 15.625 g/ha / pest or weed control at 250 g/ha: read-out: Foxtail, Giant damage rating (100=total damage to plant; 0=no damage to plant); for pest or weed control at 62.5 g/ha: 62.5 g ai/ha, 100=total damage to plant, 0=no damage to plant, read-out: plant damage rating, Foxtail, Giant; for pest or weed control at 250 g/ha: 250 g ai/ha
Summary of the method: as §2

[10] = tested on: redroot pigweed (Amaranthus retroflexus); assay: Test G Pre-Emergence Protocol; details: Amaranthus retroflexus, pre-emergence, 312 h, evaluated after 13 days; for pest or weed control at 15.625 g/ha: 15.625 g ai/ha; for pest or weed control at 15.625 g/ha / pest or weed control at 250 g/ha: read-out: Pigweed, Redroot damage rating (100=total damage to plant; 0=no damage to plant); for pest or weed control at 62.5 g/ha: 62.5 g ai/ha, 100=total damage to plant, 0=no damage to plant, read-out: plant damage rating, Pigweed, Redroot; for pest or weed control at 250 g/ha: 250 g ai/ha
Summary of the method: as §2

corn (Zea mays) [11] = assay: Test G Pre-Emergence Protocol; details: Zea mays, pre-emergence, 312 h, evaluated after 13 days; for plant injury at 15.625 g/ha: 15.625 g ai/ha; for plant injury at 15.625 g/ha / plant injury at 250 g/ha: read-out: Corn damage rating (100=total damage to plant; 0=no damage to plant); for plant injury at 62.5 g/ha: 62.5 g ai/ha, 100=total damage to plant, 0=no damage to plant, read-out: plant damage rating, Corn; for plant injury at 250 g/ha: 250 g ai/ha
Summary of the method: as §2

[12] = tested on: velvetleaf (Abutilon theophrasti); assay: Test G Pre-Emergence Protocol; details: Abutilon theophrasti, pre-emergence, 312 h, evaluated after 13 days; for pest or weed control at 15.625 g/ha: 15.625 g ai/ha; for pest or weed control at 15.625 g/ha / pest or weed control at 250 g/ha: read-out: Velvetleaf damage rating (100=total damage to plant; 0=no damage to plant); for pest or weed control at 62.5 g/ha: 62.5 g ai/ha, 100=total damage to plant, 0=no damage to plant, read-out: plant damage rating, Velvetleaf; for pest or weed control at 250 g/ha: 250 g ai/ha
Summary of the method: as §2

Compound	pest or weed control at 15.625 g/ha [1]	pest or weed control at 62.5 g/ha [1]	pest or weed control at 250 g/ha [1]	pest or weed control at 15.625 g/ha [2]	pest or weed control at 62.5 g/ha [2]	pest or weed control at 250 g/ha [2]	pest or weed control at 15.625 g/ha [3]	pest or weed control at 62.5 g/ha [3]	pest or weed control at 250 g/ha [3]	pest or weed control at 15.625 g/ha [4]	pest or weed control at 62.5 g/ha [4]	pest or weed control at 250 g/ha [4]	plant injury at 15.625 g/ha (corn (Zea mays) [5])	plant injury at 62.5 g/ha (corn (Zea mays) [5])	plant injury at 250 g/ha (corn (Zea mays) [5])	pest or weed control at 15.625 g/ha [6]	pest or weed control at 62.5 g/ha [6]	pest or weed control at 250 g/ha [6]	pest or weed control at 15.625 g/ha [7]	pest or weed control at 62.5 g/ha [7]	other results
Cc1c(NC(=O)[C@@H]2C(=O)N(C)C[C@H]2c2ccc(C(F)(F)F)cc2)ccnc1Cl (racemic) [Compound 1631]	0%	20%	20%	0%	10%	10%	0%	60%	70%	0%	20%	20%	0%	0%	10%	0%	10%	0%	0%	20%	pest or weed control at 250 g/ha [7]: 30%; pest or weed control at 15.625 g/ha [8]: 0%; pest or weed control at 62.5 g/ha [8]: 0%; pest or weed control at 250 g/ha [8]: 0%; pest or weed control at 15.625 g/ha [9]: 0%; pest or weed control at 62.5 g/ha [9]: 10%; pest or weed control at 250 g/ha [9]: 70%; pest or weed control at 15.625 g/ha [10]: 0%; pest or weed control at 62.5 g/ha [10]: 20%; pest or weed control at 250 g/ha [10]: 10%; plant injury at 15.625 g/ha (corn (Zea mays) [11]): 0%; plant injury at 62.5 g/ha (corn (Zea mays) [11]): 10%; plant injury at 250 g/ha (corn (Zea mays) [11]): 0%; pest or weed control at 15.625 g/ha [12]: 0%; pest or weed control at 62.5 g/ha [12]: 0%; pest or weed control at 250 g/ha [12]: 0%
CN1C[C@@H](c2ccc(C(F)(F)F)cc2)[C@H](C(=O)Nc2c[nH]nc2Cl)C1=O (racemic) [Compound 1633]	0%	0%	0%	0%	0%	0%	0%	0%	0%	0%	0%	0%	0%	0%	0%	0%	0%	0%	0%	0%	pest or weed control at 250 g/ha [7]: 0%; pest or weed control at 15.625 g/ha [8]: 0%; pest or weed control at 62.5 g/ha [8]: 0%; pest or weed control at 250 g/ha [8]: 0%; pest or weed control at 15.625 g/ha [9]: 0%; pest or weed control at 62.5 g/ha [9]: 0%; pest or weed control at 250 g/ha [9]: 0%; pest or weed control at 15.625 g/ha [10]: 0%; pest or weed control at 62.5 g/ha [10]: 0%; pest or weed control at 250 g/ha [10]: 0%; plant injury at 15.625 g/ha (corn (Zea mays) [11]): 0%; plant injury at 62.5 g/ha (corn (Zea mays) [11]): 0%; plant injury at 250 g/ha (corn (Zea mays) [11]): 0%; pest or weed control at 15.625 g/ha [12]: 0%; pest or weed control at 62.5 g/ha [12]: 0%; pest or weed control at 250 g/ha [12]: 0%
Cc1ncsc1NC(=O)[C@@H]1C(=O)N(C)C[C@H]1c1ccc(C(F)(F)F)cc1 (racemic) [Compound 1635]	0%	0%	0%	0%	0%	30%	0%	10%	40%	0%	0%	10%	0%	0%	0%	0%	0%	0%	0%	0%	pest or weed control at 250 g/ha [7]: 0%; pest or weed control at 15.625 g/ha [8]: 0%; pest or weed control at 62.5 g/ha [8]: 0%; pest or weed control at 250 g/ha [8]: 0%; pest or weed control at 15.625 g/ha [9]: 0%; pest or weed control at 62.5 g/ha [9]: 0%; pest or weed control at 250 g/ha [9]: 0%; pest or weed control at 15.625 g/ha [10]: 0%; pest or weed control at 62.5 g/ha [10]: 0%; pest or weed control at 250 g/ha [10]: 0%; plant injury at 15.625 g/ha (corn (Zea mays) [11]): 0%; plant injury at 62.5 g/ha (corn (Zea mays) [11]): 0%; plant injury at 250 g/ha (corn (Zea mays) [11]): 0%; pest or weed control at 15.625 g/ha [12]: 0%; pest or weed control at 62.5 g/ha [12]: 0%; pest or weed control at 250 g/ha [12]: 0%

— US12077503B2, “Substituted cyclic amides and their use as herbicides” (FMC CORPORATION, priority 2015, dated 2024)
